Laboratory results taken from patent publication US11292781B2, “Pyrimidine tricyclic enone derivatives for inhibition of ROR-gamma and other uses” (REATA PHARMACEUTICALS, INC., priority 2016, dated 2022).

Key:
[1] = test system: IL-17A levels in primary human CD4+ T cells differentiated into Th17 cells; assay: IL-17 release from differentiated primary human T-cells (IL-17A HTRF); assay type: cell-based; conditions: primary human CD4+ T cells, Th17 differentiation, 46-hour incubation; read-out: hIL17 IC50
Protocol: C. IL-17 Release from Differentiated Primary Human T-Cells and Cell Viability Primary human cryopreserved CD4+ T Cells (Lonza, donor #0000402103) were plated in Lymphocyte Growth Medium-3 (LGM-3, Lonza) according to the manufacturer's recommendations, and allowed to recover for approximately 3 hours at 37° C. with 5% CO2 in a humidified atmosphere. […] Triplicate wells were plated for each test condition. DMSO (final concentration ≤0.1%) was used as the vehicle. Immediately after plating, CD4+ T cells were activated by adding Dynabeads Human T-Activator CD3/CD28 (Life Technologies; bead-to-cell ratio of 1:2.5) and differentiated into Th17 cells by adding a mixture of the following cytokines: transforming growth factor-β (TGF-β, 5 ng/mL), IL-6 (20 ng/mL), IL-23 (20 ng/mL), and […] (10 ng/mL). Undifferentiated control cells received only cytokine IL-2 (50 ng/mL). All human recombinant cytokines were purchased from R&D Systems. Following a 46-hour incubation at 37° C. with 5% CO2 in a humidified atmosphere, the plates were centrifuged for 3 minutes at 250×g, and half of the supernatant was transferred to a new plate to be used in the IL-17A assay (see below). Cell viability was assessed in the original plate using the CyQuant Direct Assay (Life Technologies). CyQuant values from test compound samples were normalized to those from DMSO-treated samples. The concentration of IL-17A in the supernatant was measured using the Homogeneous Time-Resolved Fluorescence (HTRF) assay (Cisbio Bioassays) according to the manufacturer's protocol. The assay was performed at room temperature in low volume, solid white 384-well plates (Greiner Bio-One). […] A non-linear regression analysis with log (inhibitor) vs. normalized response using a variable slope was applied to fit the data and determine the IC50 values for inhibition of IL-17A levels and cell viability.

[2] = test system: Nrf2 transcription factor (GST ARE luciferase reporter in AREc32 cells); assay: AREc32 luciferase reporter assay; assay type: cell-based, human; conditions: EC2×: concentration required to increase GST ARE luciferase reporter activity by 2-fold, 19 hours
Source text: A. AREc32 Luciferase Reporter Assay The AREc32 luciferase reporter assay allows for quantitative assessment of the endogenous activity of the Nrf2 transcription factor in cultured mammalian cells. AREc32 cells are derived from MCF-7 human breast carcinoma cells that were stably transfected with a reporter construct that contains the firefly luciferase gene located downstream of eight copies of the rat GSTA2 antioxidant response element (ARE) sequence (Wang et al., 2006; CXR Biosciences). Active NRF2 binds to the ARE sequences and increases expression of the firefly luciferase gene. […] Luciferase activity was determined using the ONE-Glo Luciferase assay (Promega). The luminescence signal was measured on a BMG Pherastar microplate reader. The mean luminescence value from test compound-treated wells was normalized to that from DMSO-treated wells and was represented as fold-induction. Data were analyzed using GraphPad Prism version 6.00 for Windows, GraphPad Software, La Jolla Calif. USA. A non-linear regression curve with log (agonist) vs. response using a variable slope was used to fit the data. […] EC2× values were interpolated from the curve.

Row | SMILES | IC50 [1] | HRF2 ARE 2× [2]
1 | COc1nc(Nc2ccncc2)nc2c1CC[C@@H]1[C@@H](C)C(=O)C(C#N)=C[C@@]21C [T8] | 185 nM | 534 nM
2 | COc1nc(-c2ccnc3ccccc23)nc2c1CC[C@@H]1[C@@H](C)C(=O)C(C#N)=C[C@@]21C [T9] | 67 nM | 510 nM
3 | C[C@H]1C(=O)C(C#N)=C[C@@]2(C)c3nc(C4CCCCC4)nc(-c4ccccc4)c3CC[C@H]12 [T23] | 40 nM | 144 nM
4 | C[C@H]1C(=O)C(C#N)=C[C@@]2(C)c3nc(-c4ccnc5ccccc45)nc(-c4ccccc4)c3CC[C@H]12 [T32] | 68 nM | 272 nM
5 | COc1cc(-c2nc(-c3ccccc3)c3c(n2)[C@]2(C)C=C(C#N)C(=O)[C@H](C)[C@H]2CC3)ccn1 [T33] | 40 nM | 480 nM
6 | CC1=C2CCc3c(-c4ccccc4F)nc(-c4ccnc5ccccc45)nc3[C@]2(C)C=C(C#N)C1=O [T38] | 374 nM | >2000 nM
7 | C[C@H]1C(=O)C(C#N)=C[C@@]2(C)c3nc(-c4ccnc5ccccc45)nc(-c4cccc(F)c4)c3CC[C@H]12 [T39] | 63 nM | 427 nM
8 | C[C@H]1C(=O)C(C#N)=C[C@@]2(C)c3nc(-c4ccnc5ccccc45)nc(-c4ccc(F)cc4)c3CC[C@H]12 [T40] | 63 nM | 273 nM
9 | CC(C)Oc1nc(-c2ccnc3ccccc23)nc2c1CC[C@@H]1[C@@H](C)C(=O)C(C#N)=C[C@@]21C [T41] | 64 nM | 528 nM
10 | CC(C)c1nc(-c2ccnc3ccccc23)nc2c1CC[C@@H]1[C@@H](C)C(=O)C(C#N)=C[C@@]21C [T42] | 165 nM | 513 nM
11 | Cc1cc(-c2nc(-c3ccccc3)c3c(n2)[C@]2(C)C=C(C#N)C(=O)[C@H](C)[C@H]2CC3)ccn1 [T43] | 39 nM | 278 nM
12 | C[C@H]1C(=O)C(C#N)=C[C@@]2(C)c3nc(C4CCN(C(=O)OC(C)(C)C)CC4)nc(-c4ccccc4)c3CC[C@H]12 [T44] | 60 nM | 596 nM
13 | CC(=O)N1CCC(c2nc(-c3ccccc3)c3c(n2)[C@]2(C)C=C(C#N)C(=O)[C@H](C)[C@H]2CC3)CC1 [T46] | 177 nM | 735 nM
14 | C[C@H]1C(=O)C(C#N)=C[C@@]2(C)c3nc(C4=CCCN(C(=O)OC(C)(C)C)C4)nc(-c4ccccc4)c3CC[C@H]12 [T47] | 38 nM | 622 nM
15 | C[C@H]1C(=O)C(C#N)=C[C@@]2(C)c3nc(C4=CCCNC4)nc(-c4ccccc4)c3CC[C@H]12.Cl [T48] | 225 nM | 460 nM
16 | CC(=O)N1CCC=C(c2nc(-c3ccccc3)c3c(n2)[C@]2(C)C=C(C#N)C(=O)[C@H](C)[C@H]2CC3)C1 [T49] | 181 nM | 491 nM
17 | C[C@H]1C(=O)C(C#N)=C[C@@]2(C)c3nc(-c4ccnc5ccccc45)nc(-c4ccc(F)cc4F)c3CC[C@H]12 [T52] | 35 nM | 272 nM
18 | C[C@H]1C(=O)C(C#N)=C[C@@]2(C)c3nc(-c4ccnc(C5CC5)c4)nc(-c4ccccc4F)c3CC[C@H]12 [T53] | 33 nM | 380 nM
19 | C[C@H]1C(=O)C(C#N)=C[C@@]2(C)c3nc(-c4ccnc(C(F)(F)F)c4)nc(-c4ccccc4F)c3CC[C@H]12 [T54] | 31 nM | 483 nM
20 | Cc1cnccc1-c1nc(-c2ccccc2F)c2c(n1)[C@]1(C)CC(C#N)=C(O)[C@H](C)[C@H]1CC2 [T55] | 590 nM | >2000 nM
21 | C[C@H]1C(=O)C(C#N)=C[C@@]2(C)c3nc(-c4ccncc4F)nc(-c4ccccc4F)c3CC[C@H]12 [T57] | 77 nM | 419 nM
22 | Cc1cncc(-c2nc(-c3ccccc3F)c3c(n2)[C@]2(C)C=C(C#N)C(=O)[C@H](C)[C@H]2CC3)c1 [T58] | 69 nM | 155 nM
23 | C[C@H]1C(=O)C(C#N)=C[C@@]2(C)c3nc(-c4cnc5ccccc5c4)nc(-c4ccccc4F)c3CC[C@H]12 [T59] | 34 nM | 311 nM

Row | SMILES | IC50 [1] | HRF2 ARE 2× [2]
24 | CC(=O)Nc1cc(-c2nc(-c3ccccc3F)c3c(n2)[C@]2(C)C=C(C#N)C(=O)[C@H](C)[C@H]2CC3)ccn1 [T61] | 60 nM | 461 nM
25 | C[C@H]1C(=O)C(C#N)=C[C@@]2(C)c3nc(-c4cccc5cccnc45)nc(-c4ccccc4F)c3CC[C@H]12 [T62] | 39 nM | 401 nM
26 | Cc1cc(-c2nc(-c3ccccc3F)c3c(n2)[C@]2(C)C=C(C#N)C(=O)[C@H](C)[C@H]2CC3)c2cccc(F)c2n1 [T63] | 21 nM | 259 nM
27 | C[C@H]1C(=O)C(C#N)=C[C@@]2(C)c3nc(-c4ccnc(N5CCOCC5)c4)nc(-c4ccccc4F)c3CC[C@H]12 [T64] | 35 nM | 425 nM
28 | C[C@H]1C(=O)C(C#N)=C[C@@]2(C)c3nc(-c4ccnc(-c5ccccc5)c4)nc(-c4ccccc4F)c3CC[C@H]12 [T65] | 29 nM | 463 nM
29 | C[C@H]1C(=O)C(C#N)=C[C@@]2(C)c3nc(-c4cncc5ccccc45)nc(-c4ccccc4F)c3CC[C@H]12 [T66] | 39 nM | 190 nM
30 | C[C@H]1C(=O)C(C#N)=C[C@@]2(C)c3nc(-c4cnn5ccccc45)nc(-c4ccccc4F)c3CC[C@H]12 [T67] | 63 nM | 208 nM
31 | Cc1cccc2c(-c3nc(-c4ccccc4F)c4c(n3)[C@]3(C)C=C(C#N)C(=O)[C@H](C)[C@H]3CC4)ccnc12 [T68] | 31 nM | 253 nM
32 | C[C@H]1C(=O)C(C#N)=C[C@@]2(c3ccccc3)c3nc(-c4ccnc(C5CC5)c4)nc(-c4ccccc4F)c3CC[C@H]12 [T147] | – | >2000 nM
33 | CCC[C@H]1C(=O)C(C#N)=C[C@@]2(C)c3nc(-c4ccnc5ccccc45)nc(-c4ccccc4F)c3CC[C@H]12 [T158] | – | 315 nM
34 | CC(C)c1ccc(-c2nc(-c3ccnc4ccccc34)nc3c2CC[C@@H]2[C@@H](C)C(=O)C(C#N)=C[C@@]32C)cc1 [T161] | – | 158 nM
35 | C[C@H]1C(=O)C(C#N)=C[C@@]2(C)c3nc(-c4ccnc5ccccc45)nc(-c4ccc(-c5ccccc5)cc4)c3CC[C@H]12 [T163] | – | 312 nM
36 | CCC[C@@]12C=C(C#N)C(=O)[C@H](C)[C@H]1CCc1c(-c3ccccc3F)nc(-c3ccnc(C4CC4)c3)nc12 [T169] | – | 540 nM
37 | C[C@H]1C(=O)C(C#N)=C[C@@]2(C)c3nc(-c4ccnc5ccccc45)nc(-c4ccccc4F)c3C[C@H]12 [T170] | – | 1222 nM
38 | C[C@H]1C(=O)C(C#N)=C[C@@]2(C)c3nc(-c4ccnc(CF)c4)nc(-c4ccccc4F)c3C[C@H]12 [T171] | – | 1474 nM
39 | Cc1cc(-c2nc(-c3ccccc3F)c3c(n2)[C@]2(C)C=C(C#N)C(=O)[C@H](C)[C@H]2C3)c2cccc(F)c2n1 [T172] | – | 998 nM
40 | C[C@H]1C(=O)C(C#N)=C[C@@]2(C)c3nc(-c4cccc5ncccc45)nc(-c4ccccc4F)c3C[C@H]12 [T173] | – | >2000 nM
41 | C[C@H]1C(=O)C(C#N)=C[C@@]2(C)c3nc(-c4ccnc(C5CC5)c4)nc(-c4ccccc4F)c3C[C@H]12 [T174] | – | >2000 nM
42 | C[C@H]1C(=O)C(C#N)=C[C@@]2(C)c3nc(-c4ccnc(CCC(N)=O)c4)nc(-c4ccccc4F)c3CC[C@H]12 [T177] | – | 491 nM
43 | CC[C@@]1(C)C(=O)C(C#N)=C[C@@]2(C)c3nc(-c4ccnc(C5CC5)c4)nc(-c4ccccc4F)c3CC[C@H]12 [T181] | – | 518 nM
44 | Cc1cc(-c2nc(-c3ccccc3)c3c(n2)[C@]2(C)C=C(C#N)C(=O)[C@H](C)[C@H]2CCC3)ccn1 [T182] | – | 892 nM
45 | Cc1cc(-c2nc(-c3ccc(F)cc3)c3c(n2)[C@]2(C)C=C(C(N)=O)C(=O)[C@H](C)[C@H]2CC3)ccn1 [T184] | – | 1832 nM
46 | Cc1cc(-c2nc(-c3ccc(F)cc3)c3c(n2)[C@]2(C)CC(C#N)C(=O)[C@H](C)[C@H]2CC3)ccn1 (some centres unmarked) [T187] | – | >2000 nM
